Two compounds from patent US20060148744A1, “Use of cis-epoxyeicosantrienoic acids and inhibitors of soluble epoxide hydrolase to reduce damage from stroke” (priority 2004, published 2006) can be followed below.

One series has as its target T1, sEH (Homo sapiens, UniProt P34913).
T1 sequence (P34913 1-555): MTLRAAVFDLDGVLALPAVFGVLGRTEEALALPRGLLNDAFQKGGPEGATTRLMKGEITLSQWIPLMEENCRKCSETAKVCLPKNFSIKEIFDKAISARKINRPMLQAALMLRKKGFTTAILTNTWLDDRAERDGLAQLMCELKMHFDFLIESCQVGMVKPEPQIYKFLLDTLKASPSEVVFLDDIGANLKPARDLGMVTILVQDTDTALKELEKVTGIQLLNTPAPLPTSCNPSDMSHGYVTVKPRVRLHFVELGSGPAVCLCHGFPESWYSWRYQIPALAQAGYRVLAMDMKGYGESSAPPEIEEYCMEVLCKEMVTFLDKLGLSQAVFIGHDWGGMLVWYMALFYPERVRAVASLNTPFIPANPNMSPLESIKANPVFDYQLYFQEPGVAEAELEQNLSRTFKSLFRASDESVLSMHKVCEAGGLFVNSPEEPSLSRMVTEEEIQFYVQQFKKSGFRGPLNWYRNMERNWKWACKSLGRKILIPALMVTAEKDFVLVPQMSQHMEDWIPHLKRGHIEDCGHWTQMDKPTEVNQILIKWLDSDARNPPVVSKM
As to the kind of experiment: Inhibition of sEH. The class given is biochemical. As to conditions: result in words. The source says:
Any of a number of standard assays for determining epoxide hydrolase activity can be used to determine inhibition of sEH. For example, suitable assays are described in Gill, et al., Anal Biochem 131, 273-282 (1983); and Borhan, et al., Analytical Biochemistry 231, 188-200 (1995)). Suitable in vitro assays are described in Zeldin et al., J Biol. Chem. 268:6402-6407 (1993). Suitable in vivo assays are described in Zeldin et al., Arch Biochem Biophys 330:87-96 (1996). […]
The enzyme also can be detected based on the binding of specific ligands to the catalytic site which either immobilize the enzyme or label it with a probe such as dansyl, fluoracein, luciferase, green fluorescent protein or other reagent. […] The enzyme also can be detected based on the generation of fluorescent products following the hydrolysis of the epoxide. […]

Another series in a line: Metabolic stability. The class given is in vitro ADME. The note with it: result in words.
The conditions of series [1]: rat, in vivo, po. The method, then:
The sEH inhibitor, adamantyl dodecanoic acid (AUDA) was administered orally to six-week-old male stroke prone spontaneously hypertensive rats (“SPSHR”).

Series [2] concerns stroke prone spontaneously hypertensive rats. As to the kind of experiment: Cerebral ischemia by middle cerebral artery occlusion (intralumenal suture), infarct size by TTC staining. As to conditions: SPSHR, six weeks oral treatment, six hours post MCA occlusion, n=6, p<0.01 vs. vehicle. The class given is in vivo, rat. The method, then:
After six weeks of treatment, cerebral ischemia was induced by middle cerebral artery occlusion using the intralumenal suture occlusion technique. Rats were anesthetized with sodium pentobarbital (50 mg/kg IP) and body temperature was maintained at 37° C. using a microprocessor-controlled heating pad and a rectal temperature probe. The skin over the skull was retracted and the bone was thinned using a low speed drill. A laser Doppler flow probe (Perimed) was glued to the skull 2 mm posterior and 6 mm lateral to the bregma to allow for confirmation of middle cerebral artery (“MCA”) occlusion. The MCA was then occluded using the thread occlusion model as described by Zea Longa et al. “Reversible middle cerebral artery occlusion without craniotomy in rats”, Stroke 20:84-91 (1989). The common carotid artery was exposed by a midline incision and the pterygopalatine artery was ligated and the branches of the external carotid artery were cauterized. A 3-0 monofilament thread with a rounded tip was introduced into the external carotid artery in a retrograde fashion. […] Digital images of the brain slices were produced and the infarct volume was analyzed using a computerized image analysis system (NIH image, version 1.55). The percent of the hemisphere infarcted was measured using the Swanson equation to account for cerebral edema. […]

Series [3] is described as follows: Systolic blood pressure in treated SPSHR. Format: in vivo, rat. The note with it: SPSHR treated with AUDA. The source says:
This difference in infarct size occurred independently of changes in systolic blood pressure (193±2 vs. 197±6 mm Hg, AUDA vs. vehicle).

Take `CCCCCCCCCCCCNC(=O)NC12CC3CC(CC(C3)C1)C2` [ADU, N-Adamantyl-N′-dodecyl urea]: at sEH, the “activity as an inhibitor of sEH” value is “particularly high activity on sEH”. Also, the metabolic stability result in the series “Metabolic stability” is “metabolically stable”.

As to adamantyl dodecanoic acid [AUDA], in series [1], the “Plasma levels of AUDA at the end of the treatment period” value worked out at 5.03 ± 0.32 ng/mL and the “urinary AUDA excretion rate” value was 111.6 ± 24.4 ng/day. Also, in series [2], the “% hemisphere infarcted” value is 35.9±3.83 % hemisphere infarcted. Besides, in series [3], the systolic blood pressure was determined as 193±2 mm Hg.
